Source: PubChem BioAssay AID256 (DTP/NCI, 2004)
“And” between values parts separate entries of the source, which are not always exact repeats. Equal values may be shown once. Inconclusive results and toxic doses are left out.

Tested on: CD2F1 mice, L1210 leukemia ip, survival T/C
Assay: NCI In Vivo Anticancer Drug Screen. Data for tumor model L1210 Leukemia (intraperitoneal) in CD2F1 (CDF1) mice
Conditions: endpoint: mean survival time, higher = longer survival
Procedure: The antitumor activity of compounds was measured in mice bearing transplantable tumors. Survival or tumor size were measured and the results are expressed as the measurement made in the treated group (T) divided by the measurement made in the vehicle treated control group (C). The tumor model used in this assay is L1210 Leukemia (intraperitoneal) in CD2F1 (CDF1) mice

[1] = dose: 50.0 mg/kg/injection, schedule: Q01DX009 (ip), vehicle: saline
[2] = dose: 100.0 mg/kg/injection, schedule: Q04DX002 (ip), vehicle: saline with Tween-80
[3] = dose: 200.0 mg/kg/injection, schedule: Q04DX002 (ip), vehicle: saline with Tween-80
[4] = dose: 400.0 mg/kg/injection, schedule: Q04DX002 (ip), vehicle: saline with Tween-80

c1cc(-c2cc3ccc(C4=NCCN4)cc3[nH]2)ccc1C1=NCCN1
T/C (dose: 3.12 mg/kg/injection, schedule: Q01DX009 (ip), vehicle: saline): 111 % of control | T/C (dose: 3.12 mg/kg/injection, schedule: Q01DX009 (ip), vehicle: suspension in saline): 112 % of control | T/C (dose: 6.25 mg/kg/injection, schedule: Q01DX009 (ip), vehicle: saline): 124 % of control | T/C (dose: 6.25 mg/kg/injection, schedule: Q01DX009 (ip), vehicle: suspension in saline): 118 % of control | T/C (dose: 12.5 mg/kg/injection, schedule: Q01DX009 (ip), vehicle: saline): 119 % of control | T/C (dose: 12.5 mg/kg/injection, schedule: Q01DX009 (ip), vehicle: suspension in saline): 283 % of control | T/C (dose: 25.0 mg/kg/injection, schedule: Q01DX009 (ip), vehicle: suspension in saline): 295 % of control and 336 % of control and 337 % of control | T/C [1]: 88 % of control

CCOc1ccc2ccccc2c1C
T/C (dose: 100.0 mg/kg/injection, schedule: Q04DX002 (ip), vehicle: other): 120 % of control | T/C (dose: 200.0 mg/kg/injection, schedule: Q04DX002 (ip), vehicle: other): 112 % of control | T/C (dose: 400.0 mg/kg/injection, schedule: Q04DX002 (ip), vehicle: other): 104 % of control

CCC(=O)c1ccc(Cc2ccc(C(=O)CC)cc2)cc1
T/C [1]: 87 % of control | T/C (dose: 100.0 mg/kg/injection, schedule: Q01DX009 (ip), vehicle: saline): 92 % of control | T/C (dose: 200.0 mg/kg/injection, schedule: Q01DX009 (ip), vehicle: saline): 98 % of control | T/C (dose: 400.0 mg/kg/injection, schedule: Q01DX009 (ip), vehicle: saline): 93 % of control

c1ccc2c(c1)OB(C1CCCC1)O2
T/C (dose: 100.0 mg/kg/injection, schedule: Q01DX009 (ip), vehicle: other): 93 % of control | T/C (dose: 200.0 mg/kg/injection, schedule: Q01DX009 (ip), vehicle: other): 105 % of control | T/C (dose: 400.0 mg/kg/injection, schedule: Q01DX009 (ip), vehicle: other): 109 % of control

Nc1nc(SSc2nc(N)nc3c2ncn3C2CC(O)C(CO)O2)c2ncn(C3CC(O)C(CO)O3)c2n1 (stereo not given)
T/C (dose: 2.3 mg/kg/injection, schedule: Q01DX009 (ip), vehicle: saline): 152 % of control | T/C (dose: 4.7 mg/kg/injection, schedule: Q01DX009 (ip), vehicle: saline): 162 % of control | T/C (dose: 18.8 mg/kg/injection, schedule: Q01DX009 (ip), vehicle: saline): 119 % of control

C/C(=N/Nc1ccc([N+](=O)[O-])cc1[N+](=O)[O-])C1CC2CCC1C2 (stereo not given)
T/C (dose: 100.0 mg/kg/injection, schedule: Q01DX001 (ip), vehicle: saline with Tween-80): 100 % of control | T/C (dose: 200.0 mg/kg/injection, schedule: Q01DX001 (ip), vehicle: saline with Tween-80): 96 % of control | T/C (dose: 400.0 mg/kg/injection, schedule: Q01DX001 (ip), vehicle: saline with Tween-80): 96 % of control

NCCCN1CCN(CCCN)CC1
T/C (dose: 100.0 mg/kg/injection, schedule: Q04DX002 (ip), vehicle: saline): 98 % of control | T/C (dose: 200.0 mg/kg/injection, schedule: Q04DX002 (ip), vehicle: saline): 91 % of control | T/C (dose: 400.0 mg/kg/injection, schedule: Q04DX002 (ip), vehicle: saline): 98 % of control

CCCCCCCCCC(=O)N1CC[N+](C)(C)CC1
T/C (dose: 5.0 mg/kg/injection, schedule: Q01DX001 (ip), vehicle: saline): 102 % of control | T/C (dose: 10.0 mg/kg/injection, schedule: Q01DX001 (ip), vehicle: saline): 105 % of control | T/C (dose: 20.0 mg/kg/injection, schedule: Q01DX001 (ip), vehicle: saline): 104 % of control

CCCCCCCCCCCCOP(=S)(OCC)OCC
T/C [2]: 98 % of control | T/C [3]: 95 % of control | T/C [4]: 91 % of control

CC(C)CC(NC(=O)c1ccccc1)C(=O)O (stereo not given)
T/C (dose: 100.0 mg/kg/injection, schedule: Q04DX003 (ip), vehicle: saline with Tween-80): 95 % of control | T/C (dose: 200.0 mg/kg/injection, schedule: Q04DX003 (ip), vehicle: saline with Tween-80): 95 % of control | T/C (dose: 400.0 mg/kg/injection, schedule: Q04DX003 (ip), vehicle: saline with Tween-80): 101 % of control

N=c1c2ncn(C3OC(CO)C(O)C3O)c2ncn1Cc1ccc([N+](=O)[O-])cc1 (stereo not given)
T/C (dose: 100.0 mg/kg/injection, schedule: Q01DX001 (ip), vehicle: carboxymethylcellulose (CMC)): 97 % of control | T/C (dose: 200.0 mg/kg/injection, schedule: Q01DX001 (ip), vehicle: carboxymethylcellulose (CMC)): 104 % of control | T/C (dose: 400.0 mg/kg/injection, schedule: Q01DX001 (ip), vehicle: carboxymethylcellulose (CMC)): 97 % of control

O=C(COc1ccc(Br)cc1)Nc1cc(Cl)ccc1Cl
T/C [2]: 87 % of control | T/C [3]: 95 % of control | T/C [4]: 91 % of control

Cc1ccc(N2CC(O)CSC2=Nc2ccccc2)cc1 (stereo not given)
T/C (dose: 100.0 mg/kg/injection, schedule: Q01DX001 (ip), vehicle: Klucel (hydroxypropylcellulose) (HPC)): 93 % of control | T/C (dose: 200.0 mg/kg/injection, schedule: Q01DX001 (ip), vehicle: Klucel (hydroxypropylcellulose) (HPC)): 91 % of control | T/C (dose: 400.0 mg/kg/injection, schedule: Q01DX001 (ip), vehicle: Klucel (hydroxypropylcellulose) (HPC)): 91 % of control
